For data set [1], the system named is HT-29. Kind of data set: Selectivity index, ratio of IC50 for HLMEC cells to IC50 for human HT-29 cells. Format: functional.
The subject of data set [2] is A549. Kind of data set: Selectivity index, ratio of IC50 for HLMEC cells to IC50 for human A549 cells. The class given is functional.
In data set [3] the test system is P388. Nature of the data set: Selectivity index, ratio of IC50 for HLMEC cells to IC50 for mouse P388 cells. The class given is functional.
The subject of data set [4] is A549. Nature of the data set: Cytotoxicity against human A549 cells after 72 hrs by MTT assay. Format: functional, cell-based. Particulars: for IC50: A549, 72 h.
Data set [5] has as its system HT-29. Kind of data set: Selectivity index, ratio of IC50 for mouse BALB/3T3 cells to IC50 for human HT-29 cells. Format: functional.
For data set [6], the system named is P388. Nature of the data set: Cytotoxicity against mouse P388 cells after 72 hrs by MTT assay. Format: functional, cell-based. Particulars: for IC50: P388, 72 h. (Tetrazolium dyes change colour on reduction, which living cells bring about.)
Data set [7] has as its system MCF7. Kind of data set: Selectivity index, ratio of IC50 for HLMEC cells to IC50 for human MCF7 cells. The class given is functional.
Data set [8] is described as follows: Cytotoxicity against HLMEC cells after 72 hrs by SRB assay. Format: cell-based, Homo sapiens. Particulars: for IC50: Homo sapiens, HLMEC; for Activity: human, hlmec. (The SRB assay estimates cell density from bound dye.)
Data set [9] concerns HT-29. Kind of data set: Cytotoxicity against human HT-29 cells after 72 hrs by MTT assay. Particulars: for IC50: HT-29, 72 h. Format: functional, cell-based.
For data set [10], the system named is A549. Nature of the data set: Selectivity index, ratio of IC50 for mouse BALB/3T3 cells to IC50 for human A549 cells. Format: functional.
Data set [11] has as its system MCF7. Nature of the data set: Selectivity index, ratio of IC50 for mouse BALB/3T3 cells to IC50 for human MCF7 cells. The class given is functional.
Data set [12] has as its system P388. Kind of data set: Selectivity index, ratio of IC50 for mouse BALB/3T3 cells to IC50 for mouse P388 cells. Format: functional.
Another data set deals with BALB/3T3. Kind of data set: Cytotoxicity against mouse BALB/3T3 cells after 72 hrs by SRB assay. The class given is cell-based. Particulars: for IC50: Mus musculus, BALB/3T3, 72 h; for Activity: mouse, balb/3t3, 72 h.
Data set [13] concerns MCF7. Nature of the data set: Cytotoxicity against human MCF7 cells after 72 hrs by MTT assay. Format: functional, cell-based. Particulars: for IC50: MCF7, 72 h.

Activity calls are given as the source filed them. The calls are words filed in the database; no cut-off is given here.

Usually IC50 stands for the point on the concentration scale where inhibition reaches its midpoint. Read a low IC50 as higher potency. For the molecule `CC[C@@H](C(=O)[C@@H](C)[C@@H](O)[C@H](C)CCc1ccc(C)c(O)c1CN(Cc1ccccc1)Cc1ccccc1)[C@H]1O[C@](CC)([C@H]2CC[C@](O)(CC)[C@H](C)O2)C[C@@H]1C`, the “Ratio IC50” value with HT-29 [1] is on record as 0.06; with A549 [2], 0.13; with P388 [3], 1.12; with HT-29 [5], 1.02; in the data set with MCF7 [7], 0.25; in the data set on A549 [10], 2.09. Besides, the “Ratio IC50” value with MCF7 [11] is 4.17; in the data set on P388 [12], 18.72. For the same molecule, the IC50 with A549 [4] is 36.8 µM; in the data set with P388 [6], 4.11 µM; in data set [8] it was 4.61 µM; with HT-29 [9], 75.6 µM; in the data set on BALB/3T3 it was 76.9 µM; with MCF7 [13], 18.4 µM.
With `CCCCN(CCCC)Cc1c(CC[C@@H](C)[C@H](O)[C@H](C)C(=O)[C@H](CC)[C@H]2O[C@](CC)([C@H]3CC[C@](O)(CC)[C@H](C)O3)C[C@@H]2C)ccc(C)c1O`, the “Ratio IC50” value in the data set on HT-29 [1] is 0.63; in the data set on A549 [2] it was 0.84; in the data set with P388 [3], 0.69; in the data set with MCF7 [7], 0.73. For the same molecule, the IC50 in the data set with A549 [4] was 5.27 µM; in the data set on P388 [6], 6.35 µM; in data set [8] it was 4.43 µM; with HT-29 [9], 7.02 µM; with MCF7 [13], 6.11 µM.
As for `CC[C@@H](C(=O)[C@@H](C)[C@@H](O)[C@H](C)CCc1ccc(C)c(O)c1CN1CCOCC1)[C@H]1O[C@](CC)([C@H]2CC[C@](O)(CC)[C@H](C)O2)C[C@@H]1C`, the “Ratio IC50” value came out at 0.85 in the data set with HT-29 [1]; 0.71 in the data set on A549 [2]; 1.5 with P388 [3]; 2.5 in the data set on HT-29 [5]; 2.33 with MCF7 [7]; 2.1 with A549 [10]. For the same molecule, the “Ratio IC50” value in the data set with MCF7 [11] is on record as 6.89; in the data set on P388 [12] it was 4.44. The half-maximal inhibitory concentration (IC50) in the data set on A549 [4] came to 6.81 µM; with P388 [6] it was 3.23 µM; in [8], 4.86 µM; with HT-29 [9], 5.74 µM; in the data set on BALB/3T3 it was 14.3 µM; with MCF7 [13], 2.08 µM.
In the case of `CCCCCCCCN(CCCCCCCC)Cc1c(CC[C@@H](C)[C@H](O)[C@H](C)C(=O)[C@H](CC)[C@H]2O[C@](CC)([C@H]3CC[C@](O)(CC)[C@H](C)O3)C[C@@H]2C)ccc(C)c1O`, the result in the data set on A549 [4], with P388 [6], in the data set on HT-29 [9] and with MCF7 [13] was inactive. For the same molecule, the Activity entry (in data set [8]; with BALB/3T3) was “Non-toxic” throughout.
As to `CCCCCCCCCCCCN(CCCCCCCCCCCC)Cc1c(CC[C@@H](C)[C@H](O)[C@H](C)C(=O)[C@H](CC)[C@H]2O[C@](CC)([C@H]3CC[C@](O)(CC)[C@H](C)O3)C[C@@H]2C)ccc(C)c1O`, the result in the data set with A549 [4], in the data set with P388 [6], in the data set on HT-29 [9] and with MCF7 [13] was inactive. For the same molecule, the Activity entry (in data set [8]; in the data set on BALB/3T3) was “Non-toxic” throughout.
In the case of `CC[C@@H](C(=O)[C@@H](C)[C@@H](O)[C@H](C)CCc1ccc(C)c(O)c1CN(C(C)C)C(C)C)[C@H]1O[C@](CC)([C@H]2CC[C@](O)(CC)[C@H](C)O2)C[C@@H]1C`, the “Ratio IC50” value in the data set on HT-29 [1] stood at 0.87; with A549 [2] it was 0.82; in the data set with P388 [3], 0.97; in the data set with HT-29 [5] it was 3.2; in the data set on MCF7 [7] it was 0.84; with A549 [10] it was 3.03. Also, the figures for the “Ratio IC50” value with MCF7 [11] and with P388 [12] were 3.1 and 3.56, respectively. Besides, the concentration for half-maximal inhibition (IC50) in the data set with A549 [4] was determined as 5.62 µM; with P388 [6], 4.79 µM; in data set [8], 4.63 µM; in the data set on HT-29 [9], 5.33 µM; in the data set on BALB/3T3, 17.1 µM; in the data set with MCF7 [13] it was 5.5 µM.
`CCCN(CCC)Cc1c(CC[C@@H](C)[C@H](O)[C@H](C)C(=O)[C@H](CC)[C@H]2O[C@](CC)([C@H]3CC[C@](O)(CC)[C@H](C)O3)C[C@@H]2C)ccc(C)c1O`: the “Ratio IC50” value is reported as 0.59 in the data set on HT-29 [1]; 0.78 with A549 [2]; 1.15 in the data set on P388 [3]; 3.23 with HT-29 [5]; 0.73 in the data set with MCF7 [7]; 4.29 in the data set with A549 [10]. The “Ratio IC50” value with MCF7 [11] is on record as 4.04; with P388 [12], 6.35. In addition, the IC50 was 5.3 µM with A549 [4]; 3.58 µM in the data set with P388 [6]; 4.12 µM in data set [8]; 7.03 µM with HT-29 [9]; 22.7 µM in the data set on BALB/3T3; 5.62 µM in the data set on MCF7 [13].
Turning to `CC[C@@H](C(=O)[C@@H](C)[C@@H](O)[C@H](C)CCc1ccc(C)c(O)c1C(=O)O)[C@H]1O[C@](CC)([C@H]2CC[C@](O)(CC)[C@H](C)O2)C[C@@H]1C` [LASALOCID], the “Ratio IC50” value stood at 0.9 with HT-29 [1]; 0.97 in the data set on A549 [2]; 0.39 in the data set on P388 [3]; 3.77 in the data set with HT-29 [5]; 0.56 with MCF7 [7]; 4.08 with A549 [10]. Further, the “Ratio IC50” value in the data set with MCF7 [11] came to 2.36; in the data set on P388 [12], 1.62. Also, the IC50 in the data set with A549 [4] turned out to be 1.8 µM; with P388 [6], 4.54 µM; in data set [8] it was 1.75 µM; in the data set on HT-29 [9], 1.95 µM; in the data set on BALB/3T3 it was 7.35 µM; in the data set with MCF7 [13], 3.12 µM.

Source of the values: ChEMBL document CHEMBL2417465, “One-pot synthesis and cytotoxicity studies of new Mannich base derivatives of polyether antibiotic--lasalocid acid” (Bioorg Med Chem Lett, 2013).
